Assay results taken from the NIST ThermoML archive (doi:10.1016/j.jct.2007.07.005).
± gives the expanded uncertainty stated by the source.

Test: xn = mol fraction of the nth substance listed
Details: Fluid (supercritical or subcritical phases), vibrating tube

CCCCCO [pentan-1-ol] + O=C=O
Details | mass density [kg/m3]
312.96 K, 512 kPa, x2 = 0 | 799.65 ± 0.43
312.96 K, 1022 kPa, x2 = 0 | 800.04 ± 0.43
312.96 K, 1998 kPa, x2 = 0 | 800.77 ± 0.44
312.96 K, 3005 kPa, x2 = 0 | 801.53 ± 0.44
312.96 K, 4003 kPa, x2 = 0 | 802.28 ± 0.44
312.96 K, 5002 kPa, x2 = 0 | 803.02 ± 0.44
312.96 K, 6018 kPa, x2 = 0 | 803.76 ± 0.44
312.96 K, 6994 kPa, x2 = 0 | 804.49 ± 0.44
312.96 K, 8008 kPa, x2 = 0 | 805.21 ± 0.44
312.96 K, 9005 kPa, x2 = 0 | 805.93 ± 0.44
312.96 K, 10008 kPa, x2 = 0 | 806.66 ± 0.44
312.96 K, 11008 kPa, x2 = 0 | 807.37 ± 0.44
312.96 K, 12000 kPa, x2 = 0 | 808.07 ± 0.44
312.96 K, 13024 kPa, x2 = 0 | 808.78 ± 0.44
312.96 K, 13987 kPa, x2 = 0 | 809.45 ± 0.44
312.96 K, 15014 kPa, x2 = 0 | 810.14 ± 0.45
312.96 K, 15991 kPa, x2 = 0 | 810.8 ± 0.45
312.96 K, 17019 kPa, x2 = 0 | 811.48 ± 0.45
312.96 K, 17991 kPa, x2 = 0 | 812.12 ± 0.45
312.96 K, 19007 kPa, x2 = 0 | 812.79 ± 0.45
312.96 K, 19992 kPa, x2 = 0 | 813.44 ± 0.45
312.96 K, 21031 kPa, x2 = 0 | 814.1 ± 0.45
312.96 K, 22041 kPa, x2 = 0 | 814.76 ± 0.45
312.96 K, 23014 kPa, x2 = 0 | 815.41 ± 0.45
312.96 K, 24003 kPa, x2 = 0 | 816.04 ± 0.45
312.96 K, 25037 kPa, x2 = 0 | 816.73 ± 0.45
313.09 K, 6030 kPa, x2 = 0.3624 | 824 ± 0.44
313.09 K, 6997 kPa, x2 = 0.3624 | 825.21 ± 0.44
313.09 K, 8012 kPa, x2 = 0.3624 | 826.4 ± 0.44
313.09 K, 9018 kPa, x2 = 0.3624 | 827.51 ± 0.44
313.09 K, 10006 kPa, x2 = 0.3624 | 828.5 ± 0.44
313.09 K, 11027 kPa, x2 = 0.3624 | 829.51 ± 0.44
313.09 K, 12043 kPa, x2 = 0.3624 | 830.52 ± 0.44
313.09 K, 13029 kPa, x2 = 0.3624 | 831.45 ± 0.45
313.09 K, 13978 kPa, x2 = 0.3624 | 832.37 ± 0.45
313.09 K, 15011 kPa, x2 = 0.3624 | 833.36 ± 0.45
313.09 K, 16002 kPa, x2 = 0.3624 | 834.27 ± 0.45
313.09 K, 17008 kPa, x2 = 0.3624 | 835.17 ± 0.45
313.09 K, 17989 kPa, x2 = 0.3624 | 836.08 ± 0.45
313.09 K, 19002 kPa, x2 = 0.3624 | 837 ± 0.45
313.09 K, 20008 kPa, x2 = 0.3624 | 837.88 ± 0.45
313.09 K, 21025 kPa, x2 = 0.3624 | 838.76 ± 0.45
313.09 K, 21983 kPa, x2 = 0.3624 | 839.58 ± 0.45
313.09 K, 23039 kPa, x2 = 0.3624 | 840.51 ± 0.45
313.09 K, 24001 kPa, x2 = 0.3624 | 841.34 ± 0.45
313.1 K, 7022 kPa, x2 = 0.4651 | 831.11 ± 0.44
313.1 K, 8019 kPa, x2 = 0.4651 | 832.63 ± 0.44
313.1 K, 9041 kPa, x2 = 0.4651 | 834.14 ± 0.44
313.1 K, 10006 kPa, x2 = 0.8067 | 827.85 ± 0.51
313.1 K, 10013 kPa, x2 = 0.4651 | 835.54 ± 0.44
313.1 K, 10035 kPa, x2 = 0.9757 | 716.11 ± 0.96
313.1 K, 11006 kPa, x2 = 0.8067 | 834.45 ± 0.49
313.1 K, 11016 kPa, x2 = 0.4651 | 836.96 ± 0.45
313.1 K, 11020 kPa, x2 = 0.9757 | 742.56 ± 0.96
313.1 K, 11992 kPa, x2 = 0.9757 | 762.5 ± 0.78
313.1 K, 12018 kPa, x2 = 0.4651 | 838.32 ± 0.45
313.1 K, 12019 kPa, x2 = 0.8067 | 840.12 ± 0.48
313.1 K, 13002 kPa, x2 = 0.8067 | 845.06 ± 0.48
313.1 K, 13005 kPa, x2 = 0.4651 | 839.67 ± 0.45
313.1 K, 13014 kPa, x2 = 0.9757 | 779.62 ± 0.7
313.1 K, 13996 kPa, x2 = 0.8067 | 849.67 ± 0.47
313.1 K, 14022 kPa, x2 = 0.9757 | 793.9 ± 0.65
313.1 K, 14035 kPa, x2 = 0.4651 | 841.03 ± 0.45
313.1 K, 15002 kPa, x2 = 0.9757 | 806.06 ± 0.62
313.1 K, 15010 kPa, x2 = 0.4651 | 842.33 ± 0.45
313.1 K, 15017 kPa, x2 = 0.8067 | 854.05 ± 0.47
313.1 K, 16001 kPa, x2 = 0.9757 | 817.16 ± 0.6
313.1 K, 16018 kPa, x2 = 0.4651 | 843.63 ± 0.45
313.1 K, 16028 kPa, x2 = 0.8067 | 858.11 ± 0.47
313.1 K, 17009 kPa, x2 = 0.8067 | 861.86 ± 0.47
313.1 K, 17011 kPa, x2 = 0.4651 | 844.89 ± 0.45
313.1 K, 17026 kPa, x2 = 0.9757 | 827.46 ± 0.58
313.1 K, 17998 kPa, x2 = 0.9757 | 836.37 ± 0.56
313.1 K, 18010 kPa, x2 = 0.4651 | 846.15 ± 0.45
313.1 K, 18017 kPa, x2 = 0.8067 | 865.48 ± 0.47
313.1 K, 18996 kPa, x2 = 0.4651 | 847.39 ± 0.45
313.1 K, 19027 kPa, x2 = 0.8067 | 868.98 ± 0.47
313.1 K, 19034 kPa, x2 = 0.9757 | 845.17 ± 0.55
313.1 K, 19996 kPa, x2 = 0.8067 | 872.2 ± 0.47
313.1 K, 20005 kPa, x2 = 0.9757 | 852.85 ± 0.54
313.1 K, 20038 kPa, x2 = 0.4651 | 848.66 ± 0.45
313.1 K, 20988 kPa, x2 = 0.4651 | 849.83 ± 0.45
313.1 K, 20988 kPa, x2 = 0.9757 | 860.09 ± 0.54
313.1 K, 21011 kPa, x2 = 0.8067 | 875.4 ± 0.47
313.1 K, 21994 kPa, x2 = 0.9757 | 867.1 ± 0.53
313.1 K, 22004 kPa, x2 = 0.8067 | 878.43 ± 0.47
313.1 K, 22029 kPa, x2 = 0.4651 | 851.07 ± 0.45
313.1 K, 22839 kPa, x2 = 0.9757 | 872.7 ± 0.53
313.1 K, 22988 kPa, x2 = 0.4651 | 852.24 ± 0.45
313.1 K, 22990 kPa, x2 = 0.8067 | 881.33 ± 0.47
313.11 K, 3017 kPa, x2 = 0.0816 | 805.83 ± 0.44
313.11 K, 4040 kPa, x2 = 0.0816 | 806.66 ± 0.44
313.11 K, 5020 kPa, x2 = 0.0816 | 807.44 ± 0.44
313.11 K, 6033 kPa, x2 = 0.0816 | 808.27 ± 0.44
313.11 K, 6980 kPa, x2 = 0.0816 | 809.01 ± 0.44
313.11 K, 8003 kPa, x2 = 0.0816 | 809.81 ± 0.44
313.11 K, 9050 kPa, x2 = 0.0816 | 810.62 ± 0.44
313.11 K, 10006 kPa, x2 = 0.0816 | 811.35 ± 0.44
313.11 K, 10023 kPa, x2 = 0.9216 | 783.1 ± 0.77
313.11 K, 11007 kPa, x2 = 0.9216 | 796.3 ± 0.59
313.11 K, 11029 kPa, x2 = 0.0816 | 812.13 ± 0.44
313.11 K, 12014 kPa, x2 = 0.9216 | 807.61 ± 0.56
313.11 K, 12040 kPa, x2 = 0.0816 | 812.89 ± 0.44
313.11 K, 13034 kPa, x2 = 0.0816 | 813.62 ± 0.44
313.11 K, 13034 kPa, x2 = 0.9216 | 817.54 ± 0.54
313.11 K, 14013 kPa, x2 = 0.9216 | 826.1 ± 0.53
313.11 K, 14032 kPa, x2 = 0.0816 | 814.36 ± 0.44
313.11 K, 15008 kPa, x2 = 0.0816 | 815.08 ± 0.45
313.11 K, 15032 kPa, x2 = 0.9216 | 834.15 ± 0.52
313.11 K, 16011 kPa, x2 = 0.9216 | 841.25 ± 0.51
313.11 K, 16019 kPa, x2 = 0.0816 | 815.8 ± 0.45
313.11 K, 17000 kPa, x2 = 0.9216 | 847.91 ± 0.51
313.11 K, 17024 kPa, x2 = 0.0816 | 816.51 ± 0.45
313.11 K, 18011 kPa, x2 = 0.9216 | 854.26 ± 0.5
313.11 K, 18058 kPa, x2 = 0.0816 | 817.22 ± 0.45
313.11 K, 18990 kPa, x2 = 0.0816 | 817.88 ± 0.45
313.11 K, 19003 kPa, x2 = 0.9216 | 860.12 ± 0.5
313.11 K, 20009 kPa, x2 = 0.9216 | 865.74 ± 0.5
313.11 K, 20043 kPa, x2 = 0.0816 | 818.6 ± 0.45
313.11 K, 20983 kPa, x2 = 0.9216 | 870.88 ± 0.49
313.11 K, 21042 kPa, x2 = 0.0816 | 819.28 ± 0.45
313.11 K, 22024 kPa, x2 = 0.0816 | 819.97 ± 0.45
313.11 K, 23035 kPa, x2 = 0.0816 | 820.66 ± 0.45
